Reference: US20070077583A1, “Alpha enolase-directed diagnostics and therapeutics for cancer and chemotherapeutic drug resistance” (Aurelium BioPharma, Inc., priority 2005, published 2007)

Assays:
MCF-7/ADR xenografts = MCF-7/ADR xenografts in nude mice; type: in vivo; settings: 3 μg daily for 16 days, with chemotherapeutic drugs
Method: In further studies, the efficacy of a α-enolase-targeted therapeutic in treating an MDR mammary adenocarcinoma cells (MCF/AR) is assessed. Briefly, male […] nude mice 5-7 weeks old, weighing 18 g-22 g are used for the MCF-7/ADR xenografts. Mice receive a subcutaneous (s.c.) injection of the cells using 5×10^5 cells/inoculation under the shoulder. When the s.c. tumor is approximately 5.5 mm in size, mice are randomized into treatment groups of 4 including controls and groups receiving taxol or doxorubicin, alone (4 mg/kg), intraperitoneally (i.p.) every 2 days, α-enolase siRNA alone (3 μg daily for 16 days), or both taxol and α-enolase siRNA (3 μg daily for 16 days for each treatment). […] The animal's weight is measured every 4 days. Tumor growth starting on the first day of treatment is measured and the volume of the xenograft is monitored every 4 days. The mice are anaesthetized and sacrificed when the mean tumor weight is over 1 g in the control group. Tumor tissue is excised from the mice and its weight is measured. […]
In further studies, the efficacy of a α-enolase-targeted therapeutic in treating an mammary adenocarcinoma cells (MCF-7) is assessed. […] The animal's weight is measured every 4 days. Tumor growth starting on the first day of treatment is measured and the volume of the xenograft is monitored every 4 days. […] Tumor tissue is excised from the mice and its weight is measured. […]

HUVEC cells = experiment: HUVEC capillary tube formation on Matrigel; type: cell-based
Method: Transfected cells were then subjected to an angiogenesis assay to determine the effect of α-enolase on capillary tube formation. Briefly, Matrigel-coated 24-well culture plates (BD Biosciences, Rockville, Md.) were thawed at 4° C. overnight. The Matrigel was allowed to solidify for 1 hr at 37° C. α-enolase-1-directed siRNA or control siRNA silenced HUVEC cells were subsequently seeded onto the Matrigel-coated wells at a density of 40,000 cells per well in the absence of endothelial cell growth factors. Taxol was added to selected wells at 2 nM final concentration. The cells were allowed to differentiate overnight at 37° C., and were photographed after 5-6 and 16 hours using Q-Capture software under an Olympus fluorescence microscope.

SW-480 cells = experiment: cells; type: cell-based, human
Method: The colorectal adenocarcinoma cell line SW-480 was treated with α-enolase-directed siRNA using the procedures described above.

α-enolase = experiment: Western blot of α-enolase protein expression after siRNA transfection; type: cell-based, human; settings: for reduction of α-enolase expression: A549 cells; for decrease of levels of expression of α-enolase: MDA-MB-435 cells
Method: Western blot analysis utilizing anti-α-enolase antibodies was performed on MOLT4 cell extracts fractionated on SDS-PAGE (FIG. 3). Cells extract were prepared according to the protocol detailed in Example 1. […] Resolved proteins were electrophoretically transferred onto nitrocellulose membranes (Hybond, Amercham Pharmacia Biotech) for 1 hour. […] After blocking the membranes with 5% non-fat milk in 1×PBS overnight at 4° C., all antibody-binding reactions were performed in 5% non-fat milk in 1×PBS for 2 hours at room temperature for primary antibodies and for 1 hour for secondary antibodies coupled to HRP. The signal was detected by the Supersignal west Pico chemiluminescent substrate (Pierce, Rockford, Ill., USA). Two polyclonal antibodies against α-enolase were used: a goat antibody against human α-enolase (Santa Cruz Biotechology, Inc., Santa Cruz, Calif.); rabbit polyclonal antibody against human α-enolase (NNE) (MorphoSys AG, Munich, Del.). Membranes were subsequently blotted with anti-GAPDH (Novus Biologicals, Inc., Littleton, Colo.) or anti-prohibitin mouse monoclonal antibody (Lab Vision Corp., Fremont, Calif.) as controls for protein loading. To establish the importance of α-enolase to the expression of the drug-resistant phenotype in cell lines, α-enolase expression was silenced using RNAi. Briefly, the following siRNA duplexes targeting the human α-enolase mRNA were designed and purchased either from Ambion (Austin, Tex.) or Invitrogen (Carlsbad, Calif.). […] [NT] ID NO: 2) targeting the mRNA sequence corresponding to nucleotides […] from the start of the transcript (Ref Seq ID number: NM-001428). […] In another tube, […] of Oligofectamine reagent (Invitrogen, Carlsbad, Calif.) is mixed with […] of Opti-MEM. The two solutions are combined and mixed gently by inversion and incubated for 20 min. at RT. […] The next day the transfected cells were trypsinized and seeded in 6 or 96-well plates and further incubated for the indicated amount of time (assay dependent) before further analysis.

α-enolase siRNA: siRNA duplex targeting human α-enolase mRNA; sense 5′-GGCUGUUGAGCACAUCAAUtt-3′ (SEQ ID NO: 1), antisense SEQ ID NO: 2; Ambion (antisense AUUGAUGUGCUCAACAGCC; bought from Ambion, sense has tt overhang, further chemistry not given here)
total cell number in tumors vs control siRNA (MCF-7/ADR xenografts): lower
tumor weight vs control siRNA (MCF-7/ADR xenografts): smaller tumors by weight
capillary tube formation on Matrigel (HUVEC cells): inhibited from forming capillary tubes
decrease in cell viability (SW-480 cells): 50%
reduction of α-enolase expression (α-enolase; six days post-transfection): 90%
reduction of α-enolase expression (α-enolase; three days post-transfection): 77%
α-enolase expression (α-enolase; Detroit fibroblast cells, three days of treatment): significant down-regulation
α-enolase level relative to control transfected cells (α-enolase; MDA-435 cells, 6 days post-transfection): 14%
decrease of levels of expression of α-enolase (α-enolase; six days): 92%
decrease of levels of expression of α-enolase (α-enolase; three days): 67%
decrease of α-enolase protein expression (α-enolase; variety of cell lines): 50-80%
